{
  "source": "ChEMBL document CHEMBL2040549",
  "about": "“Inhibition of cap (m7GpppXm)-dependent endonuclease of influenza virus by 4-substituted 2,4-dioxobutanoic acid compounds” (Antimicrob Agents Chemother, 1994)",
  "target": "Polymerase acidic protein (Influenza A virus (A/Puerto Rico/8/1934(H1N1)), UniProt P03433)",
  "test": "Inhibition of cap 1 ALMV primed Influenza transcriptase",
  "data": [
    {"smiles": "O=C(O)/C(O)=C/C(=O)C1CCCCC1", "values": [
      {"measurement": "IC50", "result": 29.4, "unit": "µM"}
    ]},
    {"smiles": "O=C(O)/C(O)=C/S(=O)(=O)c1ccccc1", "values": [
      {"measurement": "IC50", "result": "> 500", "unit": "µM"}
    ]},
    {"smiles": "O=C(O)/C(O)=C/c1nc2ccccc2s1", "values": [
      {"measurement": "IC50", "result": "> 500", "unit": "µM"}
    ]},
    {"smiles": "O=C(O)/C(O)=C/c1nc2ccccc2o1", "values": [
      {"measurement": "IC50", "result": 100, "unit": "µM"}
    ]},
    {"smiles": "O=C(O)/C(O)=C/C(=O)C1(Cc2ccc(Cl)cc2)CCCN(S(=O)(=O)Cc2ccccc2)C1", "note": "(stereo not drawn)", "values": [
      {"measurement": "IC50", "result": 0.19, "unit": "µM"}
    ]},
    {"smiles": "O=C(O)/C(O)=C/c1cc2ccccc2o1", "values": [
      {"measurement": "IC50", "result": "> 500", "unit": "µM"}
    ]},
    {"smiles": "Cn1c(/C=C(\\O)C(=O)O)nc2ccccc21", "values": [
      {"measurement": "IC50", "result": "> 500", "unit": "µM"}
    ]},
    {"smiles": "NC(=O)/C(O)=C/C(=O)C1CCCCC1", "values": [
      {"measurement": "IC50", "result": "> 500", "unit": "µM"}
    ]},
    {"smiles": "CC(=O)/C=C(\\O)C(=O)O", "values": [
      {"measurement": "IC50", "result": 307, "unit": "µM"}
    ]},
    {"smiles": "O=C(CC(O)C(=O)O)c1ccccc1", "note": "(stereo not drawn)", "values": [
      {"measurement": "IC50", "result": "> 500", "unit": "µM"}
    ]},
    {"smiles": "CC(C)C(=O)/C=C(\\O)C(=O)O", "values": [
      {"measurement": "IC50", "result": 56.7, "unit": "µM"}
    ]},
    {"smiles": "O=C(O)C(=O)CCc1ccccc1", "values": [
      {"measurement": "IC50", "result": "> 500", "unit": "µM"}
    ]},
    {"smiles": "NC(CC(=O)c1ccccc1)C(=O)O", "note": "(stereo not drawn)", "values": [
      {"measurement": "IC50", "result": "> 500", "unit": "µM"}
    ]}
  ]
}
